Source: patent publication US20250179057A1, “MEK IMMUNE ONCOLOGY INHIBITORS AND THERAPEUTIC USES THEREOF” (Immuneering Corporation, priority 2022, published 2025)
Converted amounts (≈) assume the structure as drawn. Where two headings read alike, the source gives them in different places. One block for each molecule: values may come before it.

How the values were obtained:
[1] = test system: phospho-ERK in A549 (KRAS G12S) cells; experiment: Cell-based pERK (pERK:tERK) in A549 cells; details: for activity at 0.01 µM: Homo sapiens, A549, 2 h, read-out: A549-pERK (10 nM, 2 h); for A549-pERK (10 nM, 2 h): phospho- to total protein ratio normalized to DMSO control (Table 9); for pERK:tERK (10 nM 2 h A549): Phospho-ERK Screen in A549 (KRAS G12S), head 10 nM 2 h, title 10 μM for 2 hours
In short: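 Readout was pERK versus tERK by Western blot with IRDye-labelled secondary antibodies, imaged and quantified on a LI-COR Odyssey. Lysates were loaded at 1 mg/mL protein after Bradford estimation.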

[2] = test system: phospho-MEK in A549 cells; experiment: Cell-based pMEK (pMEK:tMEK, CRAF bypass) in A549 cells; details: 2 h; for A549-pMEK 100 nM, 2 h: normalized to DMSO control (Table 13)
Experimental: Materials and Methods: A549 or A375 cells were seeded in 6-well plates at an appropriate seeding density on day 0. On day 2 or 3, after checking the health and confluency of cells, the media was aspirated and replaced with 1 mL media containing a predetermined concentration of compound and incubated for 2 hours. After 2 hours, the media was aspirated, and the cells washed 2 times with cold PBS. Cells were lysed on ice, with 50 uL 1×CST lysis buffer +1 mM PMSF for 5 minutes. After 5 minutes, cells were removed using a scraper and transferred to cold 1.5 mL tubes, and centrifuged for 10 min, 4° C., 14,000×g. Supernatant was gently removed and snap frozen in liquid nitrogen. Protein concentration of the lysate was determined using Bradford Reagent (analyzed using SpectraMax M2E) and diluted to 1 mg/mL or pERK or 1.5 mg/mL for pMEK analysis. […] All dilutions were in Milk-free antibody diluent.
(§1) A549 or […] cells were treated in duplicate for two hours with compounds at varying concentrations. After two hours, the cells were lysed, snap frozen, and stored at −80° C. After storage, the lysate was quantified with the Bradford assay. Before the lysates were prepared to run on the Jess, the lysates were diluted to 1 mg/mL for pERK analysis and 1.5 mg/mL pMEK analysis using quantitative Western blotting. ERK and MEK phosphorylation levels were estimated by taking the ratio of phospho-protein to total protein and normalizing to the DMSO control.
as §1

PAMPA (pH 7.4) = format: in vitro ADME; details: PAMPA; pH = 7.4 (Table 14)
Experimental: Each stock solution was diluted to 50 M in pH 7.4 Prisma HT buffer (pION) and 200 μl was added to each well of the donor plate in triplicate. The polyvinylidene fluoride (PVDF, 0.45 μm) filter membrane on the acceptor plate was coated with 5 μl gastrointestinal tract lipid formulation (GIT-0, pION) and to each well of the acceptor plate, 200 μl of acceptor sink buffer (pION) was added. The acceptor filter plate was then carefully placed on top of the donor plate to form a sandwich. The sandwich was incubated at 25° C. for 4 h without stirring. UV-vis spectra of the solutions in the blank, reference, acceptor and donor plates were measured using a microplate reader (Tecan Infinite 200PRO M Nano Plus). Permeability values were calculated using the PAMPA explorer software v.

[3] = Kinetic solubility (PBS pH 7.4; 4 hr); format: physicochemical; details: free base (Table 19), read-out: Kinetic Solubility
Experimental: The plates were shaken for 4 h at room temperature in an Eppendorf Thermomixer. After incubation, the plates were centrifuged for 20 minutes at 4680 rpm. From the supernatant, 150 μL was transferred to a new 96 well plate and 50 μL DMSO was added to ensure continued dissolution. Samples were measured on LC-UV at injection volumes of 1 and 8 μL. Peak areas were determined and compared to peak areas obtained using calibration curves of the test compounds in DMSO.

[4] = Mouse pharmacokinetics (oral cassette dosing), plasma; format: in vivo; details: BALB/c immunocompetent mice, 5 mg/kg p.o.
Experimental: Female mice (BALC/c) received a single dose (3 mice/treatment) of vehicle (10% 1N HCl:90% [20% […]) and at 0.5, 1, 2, 4, 8, 12 and 24-hour post dose humanely euthanized.
Blood was obtained through cardiac puncture into K+EDTA tubes, mixed by inversion and centrifuged to obtain the plasma. Blood will be kept on ice or at approximately 4° C. prior. Centrifugation will take place within 30 minutes of blood collection affording plasma samples. Plasma samples will be frozen as soon as possible after centrifugation and stored at −80° C. until analysis. All samples will be analysed by means of LC-MS/MS. Method development for bioanalysis will be performed by pharmacokinetics Department of Crown Bioscience (Taicang) Inc. using LC-MS/MS analysis (using Waters HSS T3 2.1×50 mm (1.8 um) LC column, and an API-4000 Electrospray MS unit). The results of a kinetic solubility (free base) study are represented in Table 19.

hERG = hERG (Homo sapiens, UniProt Q12809); experiment: cell-based
Experimental: Materials and Methods: CHO cells (transformed with adenovirus 5 DNA; Stably transfected with full length hERG cDNA) were cultured in Ham's F-12 supplemented with 10% fetal bovine serum, 100 U/mL penicillin G sodium, 100 μg/mL streptomycin sulfate and 400 μg/mL Zeocin. Before testing, cells in culture dishes were rinsed with Hank's Balanced Salt Solution, detached with accutase.
HEPES-buffered intracellular solution (Charles River proprietary) for whole cell recordings was loaded into the intracellular compartment of the SP384PE. Extracellular buffer (HB-PS) and Cell suspension (in HB-PS) were pipetted into the extracellular compartment of the SP384PE chip. After establishment of a whole-cell configuration, membrane currents were recorded using patch clamp amplifier in the SP384PE system.
Test article (TA) concentrations (eight (8) concentrations of each test article were evaluated) were applied to naïve cells (n=4, where n=replicates/concentration). Each application consisted of addition of 40 μL of 2× concentrated test article solution to the total 80 μL of final volume of the extracellular well of the SP384PE chip. Duration of exposure to each compound concentration was five (5) minutes.
hERG current was measured using stimulus voltage patterns with fixed amplitudes: activation pre-pulse (TP1) to +40 mV for 2 s and test pulse (TP2) to −40 mV for 2 s from a holding potential of −80 mV. hERG current was measured as the outward peak current at TP2 (tail current). The stimulation was repeated with 0.1 Hz frequency during 2 min as baseline and 5 min after TA application.
Data acquisition and analyses were performed using the SP384PE system operation software. The decrease in current amplitude after TA application was used to calculate the percent block relative to control.
Tonic Block effect was calculated as:
[formula] • where ITP2, baseline and ITP2, TA were the outward peak K^+ currents elicited by the TP2 before application and 5 min after application of a test article, respectively.
The data were corrected for run-down:
[formula] • where % VC and % PC were the mean values of the current block with the vehicle and positive controls, respectively.
Concentration-response data were fitted to an equation of the following form:
[formula] • where [Test] was the concentration of test article, IC50 was the concentration of the test article producing half-maximal block, N was the Hill coefficient, % VC was the mean current block at the vehicle control and % Block was the percentage of ion channel current inhibited at each concentration of a test article. Nonlinear least squares fits were solved with the XLfit add-in for Excel (Microsoft, Redmond, WA).
In this study, hERG Ion channel block of IC50 values were determined. […] In brief, CHO cells were cultured in Ham's F-12 supplemented with 10% fetal bovine serum, 100 U/mL penicillin G sodium, 100 μg/mL streptomycin sulfate and 400 μg/mL Zeocin. Before testing, cells in culture dishes were rinsed with Hank's Balanced Salt Solution, detached with accutase. […] Test article (TA) concentrations were applied to naïve cells (n=4, where n=replicates/concentration). Each application consisted of addition of 40 μL of 2× concentrated test article solution to the total 80 μL of final volume of the extracellular well of the SP384PE chip. Duration of exposure to each compound concentration was five (5) minutes. hERG current was measured using stimulus voltage patterns with fixed amplitudes: activation pre-pulse (TP1) to +40 mV for 2 s and test pulse (TP2) to −40 mV for 2 s from a holding potential of −80 mV. hERG current was measured as the outward peak current at TP2 (tail current). The stimulation was repeated with 0.1 Hz frequency during 2 min as baseline and 5 min after TA application. Data acquisition and analyses were performed using the SP384PE system operation software.

CYP2D6 = CYP2D6 (Homo sapiens, UniProt P10635); experiment: CYP450 panel inhibition in human liver microsomes, 2D6 (dextromethorphan); details: control dose 1 μM, substrate dextromethorphan
CYP2C9 = CYP2C9 (Homo sapiens, UniProt P11712); experiment: CYP450 panel inhibition in human liver microsomes, 2C9 (diclofenac)
Description: The quenched samples were stored refrigerated.

in vitro = details: human
[5] = PBS buffer, pH 7.4, aqueous buffer, kinetic from dmso stock
[6] = female, mouse, read-out: AUC0-t

Sequence of hERG (Q12809 whole entry): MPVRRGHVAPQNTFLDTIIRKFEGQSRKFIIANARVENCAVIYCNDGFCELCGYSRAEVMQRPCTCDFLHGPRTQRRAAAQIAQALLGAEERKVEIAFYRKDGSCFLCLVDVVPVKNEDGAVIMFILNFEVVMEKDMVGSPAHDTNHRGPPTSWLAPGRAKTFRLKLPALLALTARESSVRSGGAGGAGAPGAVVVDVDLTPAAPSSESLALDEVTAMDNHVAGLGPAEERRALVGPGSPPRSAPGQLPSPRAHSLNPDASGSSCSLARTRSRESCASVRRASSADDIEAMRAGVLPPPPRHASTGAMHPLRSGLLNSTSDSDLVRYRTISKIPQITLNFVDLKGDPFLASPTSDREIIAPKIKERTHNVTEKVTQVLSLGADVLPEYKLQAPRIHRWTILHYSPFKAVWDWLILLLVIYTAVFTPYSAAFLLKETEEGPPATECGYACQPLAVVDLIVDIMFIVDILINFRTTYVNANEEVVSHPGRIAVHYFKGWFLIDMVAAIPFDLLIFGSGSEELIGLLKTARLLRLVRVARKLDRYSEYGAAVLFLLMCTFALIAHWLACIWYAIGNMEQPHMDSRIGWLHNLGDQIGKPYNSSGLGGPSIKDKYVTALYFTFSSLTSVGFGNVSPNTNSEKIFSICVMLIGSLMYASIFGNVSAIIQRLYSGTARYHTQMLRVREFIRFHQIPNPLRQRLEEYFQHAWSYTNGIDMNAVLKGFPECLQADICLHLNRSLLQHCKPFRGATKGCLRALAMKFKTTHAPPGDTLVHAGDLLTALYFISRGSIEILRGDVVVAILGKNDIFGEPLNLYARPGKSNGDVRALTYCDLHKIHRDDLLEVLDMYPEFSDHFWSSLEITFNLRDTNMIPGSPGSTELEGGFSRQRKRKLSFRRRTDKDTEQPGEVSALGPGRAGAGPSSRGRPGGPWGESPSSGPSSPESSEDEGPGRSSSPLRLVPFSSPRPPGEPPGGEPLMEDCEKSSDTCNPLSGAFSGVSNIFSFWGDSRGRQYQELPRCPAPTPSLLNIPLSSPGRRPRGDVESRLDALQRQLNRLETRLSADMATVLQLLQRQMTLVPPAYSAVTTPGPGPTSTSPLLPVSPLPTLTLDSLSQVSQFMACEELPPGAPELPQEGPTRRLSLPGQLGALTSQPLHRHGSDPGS
Sequence of CYP2C9 (P11712 whole entry): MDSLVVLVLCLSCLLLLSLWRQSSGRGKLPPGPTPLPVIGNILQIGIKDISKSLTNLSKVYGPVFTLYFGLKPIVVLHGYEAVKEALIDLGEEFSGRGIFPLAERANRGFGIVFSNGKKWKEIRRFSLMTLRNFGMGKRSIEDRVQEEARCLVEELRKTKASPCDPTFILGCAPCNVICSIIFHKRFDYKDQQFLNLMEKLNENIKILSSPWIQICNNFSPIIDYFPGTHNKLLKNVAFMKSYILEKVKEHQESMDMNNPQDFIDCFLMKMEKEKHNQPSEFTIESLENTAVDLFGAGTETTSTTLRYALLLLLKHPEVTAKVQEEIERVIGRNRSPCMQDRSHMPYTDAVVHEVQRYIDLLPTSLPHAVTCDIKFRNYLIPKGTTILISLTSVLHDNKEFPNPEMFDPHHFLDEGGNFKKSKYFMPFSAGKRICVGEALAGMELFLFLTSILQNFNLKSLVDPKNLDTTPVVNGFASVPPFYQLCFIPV
Sequence of CYP2D6 (P10635 whole entry): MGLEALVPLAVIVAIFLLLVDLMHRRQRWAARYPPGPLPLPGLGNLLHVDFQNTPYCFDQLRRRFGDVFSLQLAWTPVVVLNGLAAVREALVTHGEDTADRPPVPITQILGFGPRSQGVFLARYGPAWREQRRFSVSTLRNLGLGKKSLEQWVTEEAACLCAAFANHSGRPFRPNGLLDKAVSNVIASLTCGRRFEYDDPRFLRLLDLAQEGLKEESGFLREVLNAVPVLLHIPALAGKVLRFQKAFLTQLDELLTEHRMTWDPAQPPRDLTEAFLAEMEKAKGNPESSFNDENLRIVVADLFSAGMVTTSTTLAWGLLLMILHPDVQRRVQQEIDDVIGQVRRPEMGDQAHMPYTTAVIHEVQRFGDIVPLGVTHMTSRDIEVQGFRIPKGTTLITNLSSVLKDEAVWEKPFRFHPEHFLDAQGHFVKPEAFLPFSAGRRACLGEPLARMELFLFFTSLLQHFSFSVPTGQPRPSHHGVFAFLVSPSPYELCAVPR

SMILES: CNS(=O)(=O)Nc1cccc(Cc2c(CN(C)CC(F)F)c3ccc(OC(=O)N(C)C)cc3oc2=O)c1F [Compound 242]
activity at 0.01 µM [1]: 69.7%
A549-pMEK 100 nM, 2 h [2]: 33.2
Papp at 4 h, 50 μM (PAMPA (pH 7.4)): 72 ×10⁻⁶ cm/s

SMILES: CNS(=O)(=O)Nc1cccc(Cc2c(CN(C)C)c3cc(Cl)c(OC(=O)N(C)C)cc3oc2=O)c1F [Compound 24]
A549-pERK (10 nM, 2 h) [1]: 42.4
A549-CRAF BP 100 nM, 2 h ([2]; pMEK to total MEK normalized to DMSO control): 55.9 (mean, n = 2)
solubility kinetic at 4 h [3]: 57 µM (≈ 30.8 µg/mL)
AUC(0-t) [4]: 850.1 ng·h/mL
Cmax [4]: 422.7 ng/mL
Tmax [4]: 60 min

SMILES: CNS(=O)(=O)Nc1cccc(Cc2c(CN(C)CCF)c3ccc(OC(=O)N(C)C)cc3oc2=O)c1F [Compound 240]
activity at 0.01 µM [1]: 66%
A549-pMEK 100 nM, 2 h [2]: 34.2
solubility kinetic at 4 h [3, 5]: 67 µM (≈ 36.1 µg/mL)
Papp at 4 h, 50 μM (PAMPA (pH 7.4)): 62 ×10⁻⁶ cm/s
AUC(0-t) [4, 6]: 290 ng·h/mL
Cmax ([4]; female, mouse, read-out: Cmax): 865 ng/mL
Tmax ([4]; female, mouse, read-out: Tmax): 4.98 min

SMILES: CNS(=O)(=O)Nc1cccc(Cc2c(CN3CCNCC3)c3cc(F)c(OC(=O)N(C)C)cc3oc2=O)c1Cl [Compound 254, 3-(2-chloro-3-((N-methylsulfamoyl)amino)benzyl)-6-fluoro-2-oxo-4-(piperazin-1-ylmethyl)-2H-chromen-7-yl dimethylcarbamate]
IC50 (hERG): > 30 µM
activity at 0.01 µM [1]: 26.8%
pERK:tERK (10 nM 2 h A549) [1]: 27
Papp at 4 h, 50 μM (PAMPA (pH 7.4)): 2 ×10⁻⁶ cm/s

SMILES: C=C[C@H]1C[N@@]2CC[C@H]1C[C@@H]2[C@@H](O)c1ccnc2ccc(OC)cc12 [Quinidine, reference compound]
CYP-2D6 (Dextromethorphan) mean percentage CYP inhibition, control (CYP2D6): 93.1%

SMILES: CCS(=O)(=O)Nc1cccc(Cc2c(CN3CCNCC3)c3cc(F)c(OC(=O)N(C)C)cc3oc2=O)c1Cl [Compound 255, 3-(2-chloro-3-(ethylsulfonamido)benzyl)-6-fluoro-2-oxo-4-(piperazin-1-ylmethyl)-2H-chromen-7-yl dimethylcarbamate]
IC50 (hERG): 18.1 µM
activity at 0.01 µM [1]: 37.1%
pERK:tERK (10 nM 2 h A549) [1]: 37
Papp at 4 h, 50 μM (PAMPA (pH 7.4)): 5 ×10⁻⁶ cm/s

SMILES: CCN(C)Cc1c(Cc2cccc(NS(=O)(=O)CC)c2F)c(=O)oc2cc(OC(=O)N(C)C)c(Cl)cc12 [Compound 166]
A549-pERK (10 nM, 2 h) [1]: 60.9
solubility kinetic at 4 h [3]: 80 µM (≈ 44.3 µg/mL)
AUC(0-t) [4]: 11.8 ng·h/mL
Cmax [4]: 9.1 ng/mL
Tmax [4]: 120 min

SMILES: CNS(=O)(=O)Nc1cccc(Cc2c(CN(C)C)c3ccc(OC(=O)N(C)C)cc3oc2=O)c1Br [Compound 248]
activity at 0.01 µM [1]: 80.9%
pERK:tERK (10 nM 2 h A549) [1]: 81
solubility kinetic at 4 h [3, 5]: > 80 µM
Papp at 4 h, 50 μM (PAMPA (pH 7.4)): 60 ×10⁻⁶ cm/s
AUC(0-inf) ([4]; female, mouse): 28.3 ng·h/mL
half-life ([4]; female, mouse): 312 min
AUC(0-t) [4, 6]: 19.5 ng·h/mL
Cmax ([4]; female, mouse, read-out: Cmax): 8.3 ng/mL
Tmax ([4]; female, mouse, read-out: Tmax): 30 min

SMILES: Nc1ccc(S(=O)(=O)Nc2ccnn2-c2ccccc2)cc1 [Sulfaphenazole, reference compound]
2C9* (Diclofenac) (CYP2C9; 10 μM, human liver microsomes, percent inhibition): 101.2
inhibition at 30 min, 10 µM (CYP2C9; human, microsomes, pH 7.4): 95.6%

SMILES: CN(C)C(=O)Oc1cc2oc(=O)c(Cc3cccc(NS(=O)(=O)CC(F)(F)F)c3F)c(CN3CCNCC3)c2cc1Cl [Compound 247, 6-chloro-3-(2-fluoro-3-((2,2,2-trifluoroethyl)sulfonamido)benzyl)-2-oxo-4-(piperazin-1-ylmethyl)-2H-chromen-7-yl dimethylcarbamate]
activity at 0.01 µM [1]: 105%
Papp at 4 h, 50 μM (PAMPA (pH 7.4)): 7 ×10⁻⁶ cm/s

SMILES: CNS(=O)(=O)Nc1cccc(Cc2c(CN(C)C)c3c(F)cc(OC(=O)N(C)C)cc3oc2=O)c1F [Compound 244, 4-((dimethylamino)methyl)-5-fluoro-3-(2-fluoro-3-((N-methylsulfamoyl)amino)benzyl)-2-oxo-2H-chromen-7-yl dimethylcarbamate]
activity at 0.01 µM [1]: 44.7%
A549-pMEK 100 nM, 2 h [2]: 26.1
Papp at 4 h, 50 μM (PAMPA (pH 7.4)): 8 ×10⁻⁶ cm/s

A − B Permeability Ranking (Caco-2 cells): Lower
A-B Permeability Ranking (Caco-2 cells): Low
efflux ratio at 2 h, 10 μM (in vitro; Caco-2, Mean (B-A/A-B) (Efflux Ratio)): 4.06
efflux ratio at 2 h, 10 μM (in vitro; Caco-2, Mean Efflux Ratio): 2.89
Papp A→B at 2 h, 10 μM (in vitro; Caco-2, Mean Papp A − B (10^−6 cm/s)): 0.407 ×10⁻⁶ cm/s
Papp A→B at 2 h, 10 μM (in vitro; Caco-2, Mean Papp A-B (10^-6 cm/s)): 0.347 ×10⁻⁶ cm/s
Papp B→A at 2 h, 10 μM (in vitro; Caco-2, Mean Papp B − A (10^−6 cm/s)): 1.18 ×10⁻⁶ cm/s
Papp B→A at 2 h, 10 μM (in vitro; Caco-2, Mean Papp B-A (10^-6 cm/s)): 1.41 ×10⁻⁶ cm/s
SMILES: CNC(=C[N+](=O)[O-])NCCSCc1ccc(CN(C)C)o1 [Ranitidine]
